In patent US5726162A (priority 1996, dated 1998):
Several values for one entry are separate records, joined by “and”; a condition that tells them apart may be missing. Identical values can stand only once. Like-named read-outs stand apart in the source and are kept apart here.

Tests used:
Candida albicans = test: Activity against Candida albicans in microtiter plates, % control of growth; type: cell-based
Protocol: The activity against Candida albicans was determined using the following test protocol.
Conidia and mycelium from the Candida albicans culture maintained on potato dextrose agar plates were lightly scraped off into yeast extract-dextrose broth (YDB) so that mostly conidia was used as inoculum. The conidial suspsension was strained through a double layer of cheesecloth to remove mycelial clumps. The inoculum mixture was placed in microtiter plates using a 12-tipped pipet. 175 microliters were placed in each well of the microliter plates and the plates were placed in the refrigerator overnight. There were two replications.
The compounds to be tested were dissolved in 1:1 acetone:methanol and 100 ppm of the compound solution were placed in a well of the prepared microtiter plates.
The microtiter plates were incubated for 7 days at room temperature after addition of the compounds. Percent control was visually estimated using a microtiter plate reading mirror. Readings were made at 1, 2, 3, and/or 7 days after treatment.

fungal inoculum = test: organism not typed; type: cell-based; conditions: read-out: % growth inhibition
Pyricularia oryzae [1] = type: in vivo, Pyricularia oryzae on M-201 rice plants; conditions: protectant
[2] = tested on: Magnaporthe grisea (Pyricularia oryzae); test: whole plant or invertebrate; type: in vivo, Magnaporthe grisea (Pyricularia oryzae) on M201 rice plants; conditions: Pyricularia oryzae, 144 h, read-out: % Control RB
[3] = tested on: Thanatephorus cucumeris (Rhizoctonia solani); test: In vivo test b) Rice Sheath Blight (RSB), 24 hour preapplication protectant, % control; conditions: protectant; for pest or weed control at 200 ppm: read-out: % Control RSB
Protocol: Compounds were tested at 200 ppm as a twenty-four hour preapplication protectant test prior to inoculation.
b) Rice Sheath Blight (RSB)
Thanatephorus cucumeris (Rhizoctonia solani) mycelia were grown for six days in potato dextrose broth in shake culture. Drained mycelial mats were blended with an approximately equal weight of rice flour and five parts water. This slurry was dispensed onto the soil surface of pots containing rice seedlings previously treated with experimental compounds. The plants were placed in a mist chamber at 25°-28° C. for 48 hours. Following two more days at 25° C. and 70-90% relative humidity the plants were evaluated for percent disease control compared to check plants.

fungal mycelium = test: organism not typed; type: cell-based; conditions: read-out: % growth inhibition
Boytrytis cinerea = test: Tomato Botrytis protective experiments (single fungicides and combinations); type: in vivo, Boytrytis cinerea on Pixie tomato plants
Protocol: (§1) The experiments below were performed using the relevant following procedures.
(§2) Experimental compounds and commercial fungicides were tank mixed and mechanically sprayed at varying concentrations in a 1:1:2 mixture of acetone, methanol and water. Protective or preventive sprays were applied one day before spore inoculation. Curative or post-infection sprays were applied one day after spore inoculation. The spraying system utilized delivered a 200 ppm dose at the rate of 1458 liters per hectare. The following details were applicable for the specified diseases:
Three week-old "Pixie" tomato plants were inoculated with Boytrytis cinerea conidia. The plants were held in dim light for two days prior to inoculation. The spore concentration was 500,000 to 650,000 conidia per milliliter of dextrose solution. An atomizer was used to apply the conidial suspension in a heavy coating to near runoff to both the upper and lower leaf surfaces and to the plant stem. The plants were kept in a continuous mist chamber with a day-night cycle and at 20 degrees centigrade for 5 days.
(§3) "Disease control" was recorded as percent control based on a comparison of the unsprayed, inoculated controls and the treated, inoculated plants.

Septoria nodorum = test: Wheat Septoria preventative experiments (single fungicides and combinations); type: in vivo, Septoria nodorum on Fielder wheat plants
Protocol: as §1, §2
Fielder wheat plants were inoculated with Septoria nodorum conidia. The spore concentration was approximately 3,000,000 conidia per milliliter in water. An atomizer was used to apply twenty milliliters of inoculum to twenty plants per flat. The plants were placed in a humidity cabinet at 100% relative humidity for 72 hours and then placed in a greenhouse. Evaluations were made 10 days after inoculation.
as §3

Pyricularia oryzae [4] = type: in vivo, Pyricularia oryzae on M-201 rice plants; conditions: curative
[5] = 24 h, 1 day after treatment, read-out: % control of growth +1
[6] = 48 h, 2 days after treatment, read-out: % control of growth +2
[7] = 72 h, 3 days after treatment, read-out: % control of growth +3
[8] = 168 h, 7 days after treatment, read-out: % control of growth +7

Compound `CCC#CCN1N=C(c2ccc(Cl)cc2)CCC1=O` [Compound 12, 6-(4-chlorophenyl)-2-(2'-pentynyl)-4,5-dihydropyridazinone] has an inhibition of growth at 100 ppm (Candida albicans; [5]) of 100%, an inhibition of growth at 100 ppm (Candida albicans; [6]) of 100% and an inhibition of growth at 100 ppm (Candida albicans; [7]) of 100%. For the same compound, the inhibition of growth at 100 ppm (Candida albicans; [8]) was 100%, the inhibition at 1 ppm (fungal inoculum) was 96% and the “% Disease Control, Observed” value (Pyricularia oryzae [1]; 12 ppm alone) was 0%. The “% Disease Control, Observed” value (Pyricularia oryzae [1]; 50 ppm alone) was 50%, the “% Disease Control, Observed” value (Pyricularia oryzae [1]; 200 ppm alone) was 50% and the pest or weed control at 200 ppm [2] was 99%. It also gave a pest or weed control at 200 ppm [3] of 50%.
For `O=C1CCC(c2ccc(Cl)cc2)=NN1CC#Cc1ccccc1` [Compound 17], the inhibition at 25 ppm (fungal inoculum) was 91.9%, the pest or weed control at 200 ppm [2] was 0% and the pest or weed control at 200 ppm [3] was 80%.
`CC#CCN1N=C(c2ccc(C)cc2)CCC1=O` [Compound 18] showed an inhibition at 5 ppm (fungal inoculum) of 88.4%, a pest or weed control at 200 ppm [2] of 0% and a pest or weed control at 200 ppm [3] of 0%.
`CC#CCN1N=C(c2ccc(Cl)cc2Cl)CCC1=O` [Compound 19] was tested, and the inhibition at 100 ppm (fungal inoculum) was 96.8%, the pest or weed control at 200 ppm [2] was 50% and the pest or weed control at 200 ppm [3] was 0%.
`CC#CCN1N=C(c2ccc(OC)c(F)c2)CCC1=O` [Compound 20] was tested, and the inhibition at 10 ppm (fungal inoculum) was 100%, the pest or weed control at 200 ppm [2] was 0% and the pest or weed control at 200 ppm [3] was 0%.
`CC#CCCN1N=C(c2ccc(Cl)cc2)CCC1=O` [Compound 21] was tested, and the inhibition at 100 ppm (fungal inoculum) was 45.8%, the pest or weed control at 200 ppm [2] was 0% and the pest or weed control at 200 ppm [3] was 0%.
In the case of `C#CC=CCN1N=C(c2ccc(Cl)cc2)CCC1=O` [Compound 84], the inhibition at 50 ppm (fungal inoculum) is reported as 75.8%, the pest or weed control at 200 ppm [2] is reported as 95% and the pest or weed control at 200 ppm [3] is reported as 0%.
`C=CC#CCN1N=C(c2ccc(Cl)c(F)c2)CCC1=O` [Compound 100] gave an inhibition of growth at 100 ppm (Candida albicans; [5]) of 100%, an inhibition of growth at 100 ppm (Candida albicans; [6]) of 100% and an inhibition of growth at 100 ppm (Candida albicans; [7]) of 100%. It also gave an inhibition at 0.16 ppm (fungal mycelium) of 100%, a pest or weed control at 200 ppm [2] of 100% and a pest or weed control at 200 ppm [3] of 0%.
Work on `CC#CCn1nc(-c2ccc(Cl)cc2)ccc1=O` [Compound 108] yielded an inhibition at 5 ppm (fungal inoculum) of 100%, a pest or weed control at 200 ppm [2] of 95% and a pest or weed control at 200 ppm [3] of 50%.
In the case of `CCC#CCn1nc(-c2ccc(Cl)cc2)ccc1=O` [Compound 109, 6-(4-chlorophenyl)-2-(2'-pentynyl)pyridazinone], the “% Disease Control, Observed” value (Boytrytis cinerea; 50 ppm alone) is reported as 0%, the “% Disease Control, Observed” value (Boytrytis cinerea; 200 ppm alone) is reported as 75% and the inhibition of growth at 100 ppm (Candida albicans; [5]) is reported as 100%. For the same compound, the inhibition of growth at 100 ppm (Candida albicans; [6]) was 100%, the inhibition of growth at 100 ppm (Candida albicans; [7]) was 100% and the inhibition of growth at 100 ppm (Candida albicans; [8]) was 100%. For the same compound, the inhibition at 1 ppm (fungal mycelium) was 100%, the “% Disease Control, Observed” value (Septoria nodorum; 12 ppm alone) was 0% and the “% Disease Control, Observed” value (Septoria nodorum; 50 ppm alone) was 50%. For the same compound, the “% Disease Control, Observed” value (Septoria nodorum; 200 ppm alone) was 50%, the “% Disease Control, Observed” value (Pyricularia oryzae [1]; 12 ppm alone) was 0% and the “% Disease Control, Observed” value (Pyricularia oryzae [1]; 50 ppm alone) was 0%. The “% Disease Control, Observed” value (Pyricularia oryzae [1]; 200 ppm alone) was 99% and 80%, the pest or weed control at 200 ppm [2] was 99% and the “% Disease Control, Observed” value (Pyricularia oryzae [4]; 12 ppm alone) was 0%. For the same compound, the “% Disease Control, Observed” value (Pyricularia oryzae [4]; 50 ppm alone) was 50%, the “% Disease Control, Observed” value (Pyricularia oryzae [4]; 200 ppm alone) was 80% and the pest or weed control at 200 ppm [3] was 100%.
`C=CC#CCn1nc(-c2ccc(Cl)cc2)ccc1=O` [Compound 119] was tested, and the inhibition of growth at 100 ppm (Candida albicans; [5]) was 100%, the inhibition of growth at 100 ppm (Candida albicans; [6]) was 100% and the inhibition of growth at 100 ppm (Candida albicans; [7]) was 100%. For the same compound, the inhibition of growth at 100 ppm (Candida albicans; [8]) was 100%, the inhibition at 5 ppm (fungal inoculum) was 99.3% and the pest or weed control at 100 ppm [2] was 95%. The pest or weed control at 100 ppm [3] was 0%.
Compound `C=CC#CCn1nc(-c2ccc(Cl)c(F)c2)ccc1=O` [Compound 128] has an inhibition of growth at 100 ppm (Candida albicans; [5]) of 100%, an inhibition of growth at 100 ppm (Candida albicans; [6]) of 100% and an inhibition of growth at 100 ppm (Candida albicans; [7]) of 100%. It also gave an inhibition at 0.156 ppm (fungal mycelium) of 100%, a pest or weed control at 200 ppm [2] of 95% and a pest or weed control at 200 ppm [3] of 0%.
Work on `CCC#CCn1cc(-c2ccc(Cl)cc2)ccc1=O` [Compound 145, 5-(4-chlorophenyl)-1-(2-pentyn-1-yl)-2-pyridinone] yielded an inhibition at 1 ppm (fungal inoculum) of 96%, a pest or weed control at 200 ppm [2] of 95% and a pest or weed control at 100 ppm [3] of 0%.
`CCC#CCn1cc(-c2ccc(Cl)cc2)cnc1=O` [Compound 150] was tested, and the inhibition at 50 ppm (fungal inoculum) was 48.2%, the pest or weed control at 200 ppm [2] was 99% and the pest or weed control at 200 ppm [3] was 95%.
With `C=CC#CCN1N=C2c3ccc(Cl)cc3CC2CC1=O` (stereo not drawn) [Compound 156, 7-chloro-2,4,4a,5-tetrahydro-2-(2-pentyn-4-ene-1-yl)-indeno [1,2-c]-pyridazin-3-one] the inhibition of growth at 100 ppm (Candida albicans; [5]) was 100%, the inhibition of growth at 100 ppm (Candida albicans; [6]) was 100% and the inhibition of growth at 100 ppm (Candida albicans; [7]) was 100%. The inhibition at 1 ppm (fungal mycelium) was 100%, the pest or weed control at 200 ppm [2] was 100% and the pest or weed control at 200 ppm [3] was 95%.
`CCC#CCN1N=C(c2ccc(Cl)cc2)OCC1=O` [Compound 161, 2-(4-chlorophenyl)-4-(2-pentyn-1-yl)-4H,6H-1,3,4-oxadiazin-5-one] gave an inhibition of growth at 100 ppm (Candida albicans; [5]) of 100%, an inhibition of growth at 100 ppm (Candida albicans; [6]) of 100% and an inhibition of growth at 100 ppm (Candida albicans; [7]) of 100%. For the same compound, the inhibition at 1 ppm (fungal mycelium) was 75.9%, the pest or weed control at 200 ppm [2] was 99% and the pest or weed control at 200 ppm [3] was 0%.
With `N#Cc1c(Cl)c(Cl)c(Cl)c(C#N)c1Cl` [chlorothalonil] the “% Disease Control, Observed” value (Pyricularia oryzae [1]; 12 ppm alone) was 0%, the “% Disease Control, Observed” value (Pyricularia oryzae [1]; 50 ppm alone) was 0% and the “% Disease Control, Observed” value (Pyricularia oryzae [1]; 200 ppm alone) was 99%.
For `N#CC(CCc1ccc(Cl)cc1)(Cn1cncn1)c1ccccc1` (stereo not drawn) [fenbuconazole, alpha-[2-(4-chlorophenyl)ethyl]-alpha-phenyl-1H-1,2,4-triazole-1-propanenitrile], the “% Disease Control, Observed” value (Boytrytis cinerea; 6 ppm alone) was 50%, the “% Disease Control, Observed” value (Boytrytis cinerea; 25 ppm alone) was 75% and the “% Disease Control, Observed” value (Boytrytis cinerea; 50 ppm alone) was 75%.
With `CC(C)NC(=O)N1CC(=O)N(c2cc(Cl)cc(Cl)c2)C1=O` [iprodione, reference compound] the “% Disease Control, Observed” value (Septoria nodorum; 12 ppm alone) was 0%, the “% Disease Control, Observed” value (Septoria nodorum; 50 ppm alone) was 0% and the “% Disease Control, Observed” value (Septoria nodorum; 200 ppm alone) was 50%.
In the case of `C=CCOC1=NS(=O)(=O)c2ccccc21` [probenazole], the “% Disease Control, Observed” value (Pyricularia oryzae [1]; 12 ppm alone) is reported as 0%, the “% Disease Control, Observed” value (Pyricularia oryzae [1]; 50 ppm alone) is reported as 0% and the “% Disease Control, Observed” value (Pyricularia oryzae [1]; 200 ppm alone) is reported as 0%.
For `O=C1CCc2cccc3c2N1CC3` [pyroquilon], the “% Disease Control, Observed” value (Pyricularia oryzae [1]; 12 ppm alone) was 0%, the “% Disease Control, Observed” value (Pyricularia oryzae [1]; 50 ppm alone) was 0% and the “% Disease Control, Observed” value (Pyricularia oryzae [1]; 200 ppm alone) was 85%.
For mancozeb [reference compound], the “% Disease Control, Observed” value (Pyricularia oryzae [1]; 50 ppm alone) was 75%, the “% Disease Control, Observed” value (Pyricularia oryzae [1]; 200 ppm alone) was 99% and the “% Disease Control, Observed” value (Pyricularia oryzae [4]; 50 ppm alone) was 0%. The “% Disease Control, Observed” value (Pyricularia oryzae [4]; 200 ppm alone) was 0%.
